Source: patent US6593357B1, “Pyrazole compositions useful as inhibitors of ERK” (Vertex Pharmaceuticals Incorporated, priority 2000, dated 2003)

Target: T1, Aurora2 (Homo sapiens, UniProt O14965)
T1 sequence (O14965 1-403): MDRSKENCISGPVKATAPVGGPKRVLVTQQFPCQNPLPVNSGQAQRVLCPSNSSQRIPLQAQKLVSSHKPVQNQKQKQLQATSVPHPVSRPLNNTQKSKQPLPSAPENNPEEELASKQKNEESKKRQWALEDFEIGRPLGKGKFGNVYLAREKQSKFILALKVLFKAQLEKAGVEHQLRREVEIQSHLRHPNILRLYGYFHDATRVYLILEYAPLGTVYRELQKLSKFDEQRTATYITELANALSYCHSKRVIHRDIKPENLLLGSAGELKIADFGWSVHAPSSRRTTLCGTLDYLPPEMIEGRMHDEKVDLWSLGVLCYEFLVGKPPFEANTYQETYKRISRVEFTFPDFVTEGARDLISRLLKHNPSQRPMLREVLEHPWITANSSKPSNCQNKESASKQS
Assay: Aurora inhibition, standard coupled enzyme assay
Type: biochemical
Conditions: 40 μM ATP, 30° C.; read-out: Aurora2 Inhibitory Activity (IC50 class)
Method: Compounds were screened in the following manner for their ability to inhibit Aurora using a standard coupled enzyme assay. To an assay stock buffer solution containing 0.1M HEPES 7.5, 10 mM MgCl2, 25 mM NaCl, 2.5 mM phosphoenolpyruvate, 300 μM NADH, 30 μg/mL pyruvate kinase, 10 μg/mL lactate dehydrogenase, 40 μM ATP, and 800 μM peptide (LRRASLG, American Peptide, Sunnyvale, Calif.) was added a 30 μM solution of the compound in DMSO and the resulting mixture incubated at 30° C. for 10 min. The reaction was initiated by the addition of 10 μL of 70 nM Aurora and 1 mM DTT. The rates of reaction were obtained by monitoring absorbance at 340 nm over a 5 minute read time at 30° C. using a BioRad Ultramark plate reader (Hercules, Calif.). The IC50 was determined from the rate data as a function of inhibitor concentration.
The compound numbers correspond to the compound numbers in Table 1.

| SMILES | IC50 |
| --- | --- |
| O=C(NCc1ccncc1)c1cc(-c2[nH]ncc2-c2ccc(F)c(Cl)c2)c[nH]1 [II-70] | 5 to 10 µM |
| O=C(NCc1ccncc1)c1cc(-c2[nH]ncc2-c2cccc(F)c2F)c[nH]1 [II-141] | < 5 µM |
| O=C(NCc1cccnc1)c1cc(-c2[nH]ncc2-c2ccc(F)c(Cl)c2)c[nH]1 [II-101] | < 5 µM |
| O=C(NCCc1cnc[nH]1)c1cc(-c2[nH]ncc2-c2cccc(Cl)c2)c[nH]1 [II-142] | < 5 µM |
| O=C(NCc1cccnc1)c1cc(-c2[nH]ncc2-c2cccc(Cl)c2F)c[nH]1 [II-114] | < 5 µM |
| O=C(NCC1CCCO1)c1cc(-c2[nH]ncc2-c2cccc(Cl)c2F)c[nH]1 (centres unmarked) [II-106] | 5 to 10 µM |
| O=C(NCc1ccncc1)c1cc(-c2[nH]ncc2-c2cc(F)ccc2F)c[nH]1 [II-98] | 5 to 10 µM |
| O=C(NCc1cccnc1)c1cc(-c2[nH]ncc2-c2ccc(Cl)cc2)c[nH]1 [II-214] | 5 to 10 µM |
| COc1ccc(-c2cn[nH]c2-c2c[nH]c(C(=O)N3CCOCC3)c2)cc1OC [II-228] | < 5 µM |
| O=C(NCc1ccncc1)c1cc(-c2[nH]ncc2-c2ccc(Cl)c(Cl)c2)c[nH]1 [II-61] | < 5 µM |
| O=C(NCc1cccnc1)c1cc(-c2[nH]ncc2-c2ccc3c(c2)OCO3)c[nH]1 [II-216] | 5 to 10 µM |
| CCN(C)C(=O)c1cc(-c2[nH]ncc2-c2cccc(Cl)c2F)c[nH]1 [II-81] | < 5 µM |
| O=C(NCc1ccncc1)c1cc(-c2[nH]ncc2-c2ccc3c(c2)OCO3)c[nH]1 [II-213] | 5 to 10 µM |
| COc1ccc(-c2cn[nH]c2-c2c[nH]c(C(=O)NCC3CCCO3)c2)cc1OC (centres unmarked) [II-218] | 5 to 10 µM |
| O=C(NOCc1ccccc1)c1cc(-c2[nH]ncc2-c2ccc(Cl)c(Cl)c2)c[nH]1 [II-54] | 5 to 10 µM |
| O=C(NCCc1cnc[nH]1)c1cc(-c2[nH]ncc2-c2cccc(Cl)c2F)c[nH]1 [II-255] | 5 to 10 µM |
| O=C(NOCc1ccccc1)c1cc(-c2[nH]ncc2-c2cccc(F)c2F)c[nH]1 [II-103] | 5 to 10 µM |
| CCN(C)C(=O)c1cc(-c2[nH]ncc2-c2ccc(OC)c(OC)c2)c[nH]1 [II-258] | > 10 µM |
| COc1ccc(-c2cn[nH]c2-c2c[nH]c(C(=O)NCC3CCCN(C(=O)OC(C)(C)C)C3)c2)cc1OC (centres unmarked) [II-259] | 5 to 10 µM |
| COc1ccc(-c2cn[nH]c2-c2c[nH]c(C(=O)NOCc3ccccc3)c2)cc1OC [II-260] | > 10 µM |
| O=C(NCc1cccnc1)c1cc(-c2[nH]ncc2-c2cc(F)ccc2F)c[nH]1 [II-181] | 5 to 10 µM |
| COc1ccc(-c2cn[nH]c2-c2c[nH]c(C(=O)NCc3cccnc3)c2)cc1OC [II-215] | 5 to 10 µM |
| O=C(NCC1CCCO1)c1cc(-c2[nH]ncc2-c2cc(F)ccc2F)c[nH]1 (centres unmarked) [II-188] | > 10 µM |
| O=C(NCCc1cnc[nH]1)c1cc(-c2[nH]ncc2-c2cc(Cl)cc(Cl)c2)c[nH]1 [II-266] | 5 to 10 µM |
| O=C(NCc1ccncc1)c1cc(-c2[nH]ncc2-c2ccc(Cl)cc2)c[nH]1 [II-211] | 5 to 10 µM |
| O=C(NOCc1ccccc1)c1cc(-c2[nH]ncc2-c2cccc(Cl)c2)c[nH]1 [II-57] | < 5 µM |
| CCN(C)C(=O)c1cc(-c2n[nH]cc2-c2cccc(Cl)c2)c[nH]1 [II-93] | < 5 µM |
| COc1ccc(-c2cn[nH]c2-c2c[nH]c(C(=O)NCc3ccncc3)c2)cc1OC [II-212] | 5 to 10 µM |
| O=C(NCCc1cnc[nH]1)c1cc(-c2[nH]ncc2-c2ccc(Cl)cc2)c[nH]1 [II-252] | 5 to 10 µM |
| O=C(NCCc1cnc[nH]1)c1cc(-c2[nH]ncc2-c2ccc(Cl)c(Cl)c2)c[nH]1 [II-254] | < 5 µM |

Target: ERK2 (Homo sapiens, UniProt P28482)
Sequence (P28482 whole entry): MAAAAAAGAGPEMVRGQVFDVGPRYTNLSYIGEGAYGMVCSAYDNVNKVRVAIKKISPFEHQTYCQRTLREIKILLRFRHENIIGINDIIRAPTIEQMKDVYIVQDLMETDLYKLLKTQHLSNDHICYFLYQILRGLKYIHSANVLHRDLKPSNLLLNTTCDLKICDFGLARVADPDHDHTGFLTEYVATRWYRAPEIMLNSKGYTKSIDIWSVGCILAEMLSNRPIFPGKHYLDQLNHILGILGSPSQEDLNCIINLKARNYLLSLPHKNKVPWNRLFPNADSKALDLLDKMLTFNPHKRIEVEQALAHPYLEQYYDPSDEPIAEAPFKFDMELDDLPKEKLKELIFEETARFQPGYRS
Assay: ERK2 inhibition, spectrophotometric coupled-enzyme assay
Type: biochemical
Conditions: activated ERK2 10 nM, 65 μM ATP, 30° C., pH 7.5; read-out: ERK2 Inhibitory Activity (Ki class)

| SMILES | Ki |
| --- | --- |
| O=C(NCc1ccncc1)c1cc(-c2[nH]ncc2-c2ccc(F)c(Cl)c2)c[nH]1 [II-70] | < 1000 nM |
| O=C(NCc1ccncc1)c1cc(-c2[nH]ncc2-c2cccc(F)c2F)c[nH]1 [II-141] | 1000 to 5000 nM |
| O=C(NCc1cccnc1)c1cc(-c2[nH]ncc2-c2ccc(F)c(Cl)c2)c[nH]1 [II-101] | < 1000 nM |
| O=C(NCCc1cnc[nH]1)c1cc(-c2[nH]ncc2-c2cccc(Cl)c2)c[nH]1 [II-142] | 1000 to 5000 nM |
| O=C(NCc1cccnc1)c1cc(-c2[nH]ncc2-c2cccc(Cl)c2F)c[nH]1 [II-114] | < 1000 nM |
| O=C(NCC1CCCO1)c1cc(-c2[nH]ncc2-c2cccc(Cl)c2F)c[nH]1 (centres unmarked) [II-106] | < 1000 nM |
| O=C(NCc1ccncc1)c1cc(-c2[nH]ncc2-c2cc(F)ccc2F)c[nH]1 [II-98] | < 1000 nM |
| O=C(NCc1ccncc1)c1cc(-c2[nH]ncc2-c2ccc(Cl)c(Cl)c2)c[nH]1 [II-61] | < 1000 nM |
| CCN(C)C(=O)c1cc(-c2[nH]ncc2-c2cccc(Cl)c2F)c[nH]1 [II-81] | < 1000 nM |
| O=C(NOCc1ccccc1)c1cc(-c2[nH]ncc2-c2ccc(Cl)c(Cl)c2)c[nH]1 [II-54] | < 1000 nM |
| O=C(NOCc1ccccc1)c1cc(-c2[nH]ncc2-c2cccc(F)c2F)c[nH]1 [II-103] | < 1000 nM |
| O=C(NCc1ccc(-c2cnns2)cc1)c1cc(-c2[nH]ncc2-c2cccc(Br)c2)c[nH]1 [II-110] | < 1000 nM |
| Cc1cccc(-c2cn[nH]c2-c2c[nH]c(C(=O)NC(CO)c3ccccc3)c2)c1 (centres unmarked) [II-75] | < 1000 nM |
| O=C(c1cc(-c2[nH]ncc2-c2cccc(Br)c2)c[nH]1)N1CCN(c2cnccn2)CC1 [II-138] | 1000 to 5000 nM |
| CCOC(=O)c1cc(-c2[nH]ncc2-c2cccc([N+](=O)[O-])c2)c[nH]1 [II-6] | < 1000 nM |
| O=C(Nc1ccc(F)c(F)c1)c1cc(-c2[nH]ncc2-c2cccc(Br)c2)c[nH]1 [II-40] | < 1000 nM |
| O=C(NCc1cccc(C(F)(F)F)c1)c1cc(-c2[nH]ncc2-c2cccc(Br)c2)c[nH]1 [II-47] | < 1000 nM |
| COc1cccc(CNC(=O)c2cc(-c3[nH]ncc3-c3cccc(Br)c3)c[nH]2)c1 [II-46] | < 1000 nM |
| Cc1ccc(CNC(=O)c2cc(-c3[nH]ncc3-c3cccc(Br)c3)c[nH]2)o1 [II-58] | < 1000 nM |
| O=C(NCc1ccccc1)c1cc(-c2[nH]ncc2-c2cccc(F)c2)c[nH]1 [II-63] | < 1000 nM |
| CS(=O)(=O)c1ccc(CNC(=O)c2cc(-c3[nH]ncc3-c3cccc(Br)c3)c[nH]2)cc1 [II-55] | < 1000 nM |
| O=C(c1cc(-c2[nH]ncc2-c2ccc(F)c(Cl)c2)c[nH]1)N1CCOCC1 [II-107] | < 1000 nM |

| SMILES | Ki |
| --- | --- |
| O=C(N[C@@H](CO)c1ccccc1)c1cc(-c2[nH]ncc2-c2cc(Cl)cc(Cl)c2)c[nH]1 [II-39] | < 1000 nM |
| O=C(NCc1ccccc1)c1cc(-c2[nH]ncc2-c2cccc([N+](=O)[O-])c2)c[nH]1 [II-285] | 1000 to 5000 nM |
| COC(=O)c1cccc(-c2cn[nH]c2-c2c[nH]c(C(=O)NCc3ccccc3)c2)c1 [II-132] | 1000 to 5000 nM |
| O=C(NCc1ccco1)c1cc(-c2[nH]ncc2-c2ccccc2)c[nH]1 [II-22] | < 1000 nM |
| COc1cccc(-c2cn[nH]c2-c2c[nH]c(C(=O)N3CCCC3)c2)c1 [II-24] | < 1000 nM |
| CCOC(=O)c1cc(-c2[nH]ncc2-c2cccc(Cl)c2)c[nH]1 [II-13] | < 1000 nM |
| Cc1ccccc1CNC(=O)c1cc(-c2[nH]ncc2-c2cccc(Br)c2)c[nH]1 [II-60] | < 1000 nM |
| CCOC(=O)c1cc(-c2[nH]ncc2-c2cccc(OC)c2)c[nH]1 [II-10] | > 5000 nM |
| O=C(c1cc(-c2[nH]ncc2-c2cccc(Br)c2)c[nH]1)N1CCC(O)(c2ccccc2)CC1 [II-102] | < 1000 nM |
| CCOC(=O)c1cc(-c2[nH]ncc2-c2cccc(F)c2)c[nH]1 [II-162] | > 5000 nM |
| CC(C)(C)OC(=O)N1CCCC(CNC(=O)c2cc(-c3[nH]ncc3-c3cc(Cl)cc(Cl)c3)c[nH]2)C1 (centres unmarked) [II-125] | 1000 to 5000 nM |
| COc1cccc(-c2cn[nH]c2-c2c[nH]c(C(=O)NCc3ccco3)c2)c1 [II-30] | < 1000 nM |
| O=C(c1cc(-c2[nH]ncc2-c2cccc(Br)c2)c[nH]1)N1CCN(c2ccc(F)cc2)CC1 [II-128] | 1000 to 5000 nM |
| COc1cc(OC)c(CNC(=O)c2cc(-c3[nH]ncc3-c3cccc(Br)c3)c[nH]2)c(OC)c1 [II-118] | 1000 to 5000 nM |
| O=C(NCc1ccncc1)c1cc(-c2[nH]ncc2-c2cccc([N+](=O)[O-])c2)c[nH]1 [II-289] | > 5000 nM |
| O=C(N[C@@H](CO)Cc1ccc(O)cc1)c1cc(-c2[nH]ncc2-c2cccc(Br)c2)c[nH]1 [II-293] | > 5000 nM |
| COc1cccc(-c2cn[nH]c2-c2c[nH]c(C(=O)NCc3cccnc3)c2)c1 [II-26] | < 1000 nM |
| O=C(NOCc1ccccc1)c1cc(-c2[nH]ncc2-c2ccc(F)cc2)c[nH]1 [II-146] | 1000 to 5000 nM |
| O=C(NC[C@@H]1CCCC[C@@H]1O)c1cc(-c2[nH]ncc2-c2cccc(Br)c2)c[nH]1 [II-65] | < 1000 nM |
| O=C(NCc1ccccc1)c1cc(-c2[nH]ncc2-c2ccc(Cl)cc2)c[nH]1 [II-92] | < 1000 nM |
| O=C(c1cc(-c2[nH]ncc2-c2cccc(Br)c2)c[nH]1)N1CCc2ccccc2C1 [II-87] | < 1000 nM |
| Cc1cccc(-c2cn[nH]c2-c2c[nH]c(C(=O)NCc3ccncc3)c2)c1 [II-96] | < 1000 nM |
